In PubChem BioAssay (NCI):
Where “and” joins values, the source holds several entries; their conditions need not be identical. Identical values can stand only once.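 These data come from cells grown in 96-well plates and exposed to compound for 48 hours at five concentrations. At the GI50, growth is halved. TGI denotes the concentration required for complete inhibition of growth.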

Tests used:
Assay in all cases: DTP human tumour cell line panel, 48 h
MALME-3M melanoma = test system: MALME-3M melanoma
OVCAR-4 ovarian = test system: OVCAR-4 ovarian
LXFL 529 NSCLC = test system: LXFL 529 NSCLC
DLD-1 colon = test system: DLD-1 colon
NCI-H23 lung = test system: NCI-H23 lung
EKVX NSCLC = test system: EKVX NSCLC
SK-MEL-2 melanoma = test system: SK-MEL-2 melanoma
RPMI-8226 leukemia = test system: RPMI-8226 leukemia
TK-10 renal = test system: TK-10 renal
SK-OV-3 ovarian = test system: SK-OV-3 ovarian
UACC-62 melanoma = test system: UACC-62 melanoma

SMILES	TGI (MALME-3M melanoma)	TGI (OVCAR-4 ovarian)	TGI (LXFL 529 NSCLC)	TGI (DLD-1 colon)	TGI (NCI-H23 lung)	TGI (EKVX NSCLC)	TGI (SK-MEL-2 melanoma)	TGI (RPMI-8226 leukemia)	TGI (TK-10 renal)	TGI (SK-OV-3 ovarian)	TGI (UACC-62 melanoma)	GI50 (SK-OV-3 ovarian)	GI50 (MALME-3M melanoma)	GI50 (OVCAR-4 ovarian)	GI50 (NCI-H23 lung)	GI50 (EKVX NSCLC)	GI50 (SK-MEL-2 melanoma)	GI50 (RPMI-8226 leukemia)	GI50 (TK-10 renal)	GI50 (UACC-62 melanoma)
CC1=C(C(=O)Nc2ccccc2C)C(c2ccccc2C)C(C(=O)Nc2ccccc2C)=C(C)N1	38.2 µM	53.9 µM	> 10 µM	33.4 µM	68.4 µM	42.3 µM	38.8 µM	81.3 µM	64.4 µM	–	–	–	–	–	–	–	–	–	–	–
COC(=O)C1=C(c2ccc(Cl)cc2)C(O)N=C(NN)N1 (centres undefined)	> 100 µM	> 100 µM	> 100 µM	> 100 µM	> 100 µM	> 100 µM	> 100 µM	> 100 µM	> 100 µM	> 100 µM	> 100 µM	–	–	–	–	–	–	–	–	–
O=C(CC(=O)c1ccccc1)C(=O)NC12CC3CC(CC(C3)C1)C2	> 100 µM	> 100 µM	> 100 µM	> 70 µM	> 100 µM	> 100 µM	> 100 µM	> 66 µM	> 100 µM	> 100 µM	> 100 µM	–	–	–	–	–	–	–	–	–
O=C1NN=C(c2ccc([N+](=O)[O-])cc2)C1n1nc(-c2ccccc2)c2ccccc2c1=O (centres undefined)	> 100 µM	> 100 µM	> 100 µM	> 78.7 µM	> 100 µM	> 100 µM	> 100 µM	> 70 µM	> 100 µM	> 100 µM	> 100 µM	–	–	–	–	–	–	–	–	–
COc1cc2nncc(SCc3ccc(Cl)c(Cl)c3)c2cc1OC	> 100 µM	> 91.9 µM	> 100 µM	–	> 100 µM	> 100 µM	> 100 µM	> 100 µM	> 100 µM	> 100 µM	> 100 µM	–	–	–	–	–	–	–	–	–
CCSC(=O)C1(C)OC2CCCCC2C1=O (centres undefined)	> 100 µM	> 100 µM	> 100 µM	> 100 µM	–	–	> 100 µM	> 100 µM	> 100 µM	> 100 µM	> 100 µM	–	–	–	–	–	–	–	–	–
COc1cc2c3cc1Oc1c(OC)c(OC)cc4c1C(Cc1ccc(cc1)Oc1cc(ccc1O)CC3N(C)CC2)N(C)CC4 (centres undefined)	27 µM and 26 µM	29.6 µM and 31.3 µM	27.8 µM	54.9 µM	48.1 µM and 26.3 µM	> 100 µM and 33.3 µM	27 µM and 24.8 µM	32.1 µM	45 µM and 25.9 µM	69.6 µM and 86.2 µM	28.5 µM and 21.7 µM	–	–	–	–	–	–	–	–	–
CC1CC(=O)c2c(ccc3c2C(=O)c2cccc(O)c2C3=O)C1 (centres undefined)	19.8 µM	25.3 µM	14.1 µM	9.56 µM	27.1 µM	28 µM	22.6 µM	39.1 µM	–	57.2 µM	22.4 µM	–	–	–	–	–	–	–	–	–
NS(=O)(=O)c1ccc(NC(=O)c2cccc3c(Nc4ccc(S(N)(=O)=O)cc4)c4ccccc4nc23)cc1	> 100 µM	55.6 µM	85.9 µM	> 100 µM	> 100 µM	> 100 µM	82.3 µM	39.1 µM	> 100 µM	> 100 µM	> 100 µM	–	–	–	–	–	–	–	–	–
COc1cc(/C=C\c2ccc(Cl)cc2)cc(OC)c1OC	57.3 µM	> 100 µM	> 95.1 µM	> 100 µM	1.12 µM	> 87.5 µM	16.3 µM	46.4 µM	> 100 µM	89.3 µM	> 100 µM	–	–	–	–	–	–	–	–	–
N#CC(C(=O)CCC(=O)Nc1ccc(Cl)c(Cl)c1)c1ccc(Cl)cc1 (centres undefined)	> 100 µM	> 100 µM	> 100 µM	> 100 µM	> 100 µM	> 100 µM	> 100 µM	> 100 µM	> 100 µM	–	> 100 µM	–	–	–	–	–	–	–	–	–
O=C(NC1C=Nc2ccccc2NC1=O)c1ccccc1Cl (centres undefined)	> 100 µM	> 100 µM	> 100 µM	> 100 µM	> 100 µM	> 100 µM	> 100 µM	–	> 100 µM	> 100 µM	> 100 µM	–	–	–	–	–	–	–	–	–
O=c1[nH]cnc2c1ncn2CCCCO	> 100 µM	> 100 µM	> 100 µM	> 100 µM	> 100 µM	> 100 µM	–	> 100 µM	> 100 µM	–	> 100 µM	–	–	–	–	–	–	–	–	–
COC(=O)C1C(/C=C/c2ccoc2)ON2CCC[C@@H]12 (some centres undefined)	> 100 µM	> 100 µM	> 100 µM	> 100 µM	> 100 µM	> 100 µM	> 100 µM	–	> 100 µM	–	–	–	–	–	–	–	–	–	–	–
OC1c2ccccc2C2C(O)c3ccccc3C12 (centres undefined)	> 100 µM	> 100 µM	> 100 µM	> 100 µM	> 100 µM	> 100 µM	> 100 µM	> 100 µM	> 100 µM	> 100 µM	> 100 µM	–	–	–	–	–	–	–	–	–
CCOC(=O)C1Oc2ccc([N+](=O)[O-])cc2C1(C)O (centres undefined)	> 100 µM	> 100 µM	> 100 µM	> 100 µM	> 100 µM	> 100 µM	> 100 µM	> 100 µM	> 100 µM	> 100 µM	> 100 µM	–	–	–	–	–	–	–	–	–
COC(=O)c1nc(N)nc(C(=O)OC)c1C(=O)c1ccccc1	> 100 µM	–	> 100 µM	> 100 µM	> 100 µM	> 100 µM	> 100 µM	> 100 µM	> 100 µM	> 100 µM	> 100 µM	–	–	–	–	–	–	–	–	–
COc1ccc(/C(C#N)=C(/N)SCc2ccccc2Cl)cc1	44.7 µM	–	31.2 µM	32.7 µM	34.2 µM	48.2 µM	32.6 µM	> 100 µM	94.7 µM	86.9 µM	25.4 µM	–	–	–	–	–	–	–	–	–
COC1(Cc2ccccc2)C(=O)c2ccccc2N1C(C)=O (centres undefined)	–	> 100 µM	> 100 µM	> 100 µM	> 100 µM	> 100 µM	> 100 µM	> 100 µM	–	> 100 µM	> 100 µM	–	–	–	–	–	–	–	–	–
CCCCCCCCCCCCCCCCCc1nnc(N)o1	> 100 µM	> 100 µM	> 100 µM	> 100 µM	> 100 µM	–	> 100 µM	> 100 µM	> 100 µM	> 100 µM	> 100 µM	–	–	–	–	–	–	–	–	–
O=c1[nH]c2c(c3ccccc13)CCc1ccccc1-2	> 100 µM	> 100 µM	> 100 µM	–	> 100 µM	> 100 µM	> 100 µM	> 100 µM	> 100 µM	> 100 µM	–	–	–	–	–	–	–	–	–	–
c1ccc(/C(=N\Nc2ccc3ccccc3n2)c2ccccn2)cc1	5.76 µM	> 100 µM	–	–	22.8 µM	8.39 µM	7.4 µM	3.68 µM	5.31 µM	18 µM	7.41 µM	0.612 µM	0.546 µM	0.418 µM	0.983 µM	0.281 µM	0.604 µM	0.503 µM	0.372 µM	0.549 µM
